The results in this text go back to patent US10239832B2, “N-(1-hydroxy-3-(pyrrolidinyl)propan-2-yl)pyrrolidine-3-carboxamide derivatives as glucosylceramide synthase inhibitors” (BIOMARIN PHARMACEUTICAL INC., priority 2013, dated 2019).

In this assay the target is T1, GCS (Canis lupus familiaris, UniProt A0A8I3MXG6).
T1 construct: endogenous in cells; host or cells: MDCK (Madin-Darby canine kidney) cells, whole-cell lysate
T1 sequence (A0A8I3MXG6 1-394): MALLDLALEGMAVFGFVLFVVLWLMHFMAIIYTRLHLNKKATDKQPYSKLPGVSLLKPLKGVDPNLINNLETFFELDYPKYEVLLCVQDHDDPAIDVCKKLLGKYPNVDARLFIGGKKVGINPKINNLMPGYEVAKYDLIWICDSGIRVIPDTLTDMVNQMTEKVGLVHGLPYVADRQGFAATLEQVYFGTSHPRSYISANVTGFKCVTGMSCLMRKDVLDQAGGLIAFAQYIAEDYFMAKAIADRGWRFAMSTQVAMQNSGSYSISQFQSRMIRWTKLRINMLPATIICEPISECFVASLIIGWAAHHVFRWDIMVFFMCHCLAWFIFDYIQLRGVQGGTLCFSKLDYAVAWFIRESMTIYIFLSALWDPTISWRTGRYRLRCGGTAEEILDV
The experiment in a line: GCS enzymatic assay (MDCK cell lysate, NBD-ceramide to glucosylceramide, LC/MS). The format is biochemical, canine. To be noted: Table 2, the table does not say which of the assays; for Data Range (% inhibition): class symbols D, E, F, NA (not active); for IC50: class symbols A, B, C, read-out: Data Range (IC50 values). In outline:
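Dog MDCK cell lysate served as enzyme source, with NBD-ceramide turned over to glucosylceramide and 0.1% DMSO as mock control. The reaction was stopped with acetonitrile. Both lipids were quantified by LC/MS/MS in ESI positive MRM mode against a tolbutamide internal standard, giving IC50 or percent inhibition.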

SMILES strings stand for the structures.

On to `O=C(N[C@H](CN1CCCCC1)[C@H](O)c1ccc2c(c1)OCCO2)C1CCN(c2ccc(F)cc2)C1` (stereo partly drawn) [Compound 46A, N-((1R,2R)-1-(2,3-dihydrobenzo[b][1,4]dioxin-6-yl)-1-hydroxy-3-(piperidin-1-yl)propan-2-yl)-1-(4-fluorophenyl)pyrrolidine-3-carboxamide], for which the “Data Range (% inhibition)” value was “F (1-49% (or less than 50%))”.

Regarding `O=C(N[C@H](CN1CCCCC1)[C@H](O)c1ccc2c(c1)OCCO2)[C@H]1CCN(c2ccc(F)cc2)C1` [Compound 46B, (S)-N-((1R,2R)-1-(2,3-dihydrobenzo[b][1,4]dioxin-6-yl)-1-hydroxy-3-(piperidin-1-yl)propan-2-yl)-1-(4-fluorophenyl)pyrrolidine-3-carboxamide], the “Data Range (% inhibition)” value was “NA (not active—a negative value was generated for % inhibition)”. In the case of `O=C(N[C@H](CN1CCC1)[C@H](O)c1cc(F)c2c(c1)OCCO2)[C@@H]1CCN(c2ccc3cc(F)ccc3c2)C1` [Compound 47, (R)-N-((1R,2R)-3-(azetidin-1-yl)-1-(8-fluoro-2,3-dihydrobenzo[b][1,4]dioxin-6-yl)-1-hydroxypropan-2-yl)-1-(6-fluoronaphthalen-2-yl)pyrrolidine-3-carboxamide], the IC50 was 1 to 30 nM.

With `O=C(N[C@H](CN1CCC1)[C@H](O)c1cc(F)c2c(c1)OCCO2)C1CCN(c2ccc3cc(F)ccc3c2)C1` (stereo partly drawn) [Compound 47A, N-((1R,2R)-3-(azetidin-1-yl)-1-(8-fluoro-2,3-dihydrobenzo[b][1,4]dioxin-6-yl)-1-hydroxypropan-2-yl)-1-(6-fluoronaphthalen-2-yl)pyrrolidine-3-carboxamide], the IC50 lay in the range of 1 to 30 nM. The same measure, in the same setting: the figure for `O=C(N[C@H](CN1CCC1)[C@H](O)c1cc(F)c2c(c1)OCCO2)[C@H]1CCN(c2ccc3cc(F)ccc3c2)C1` [Compound 47B, (S)-N-((1R,2R)-3-(azetidin-1-yl)-1-(8-fluoro-2,3-dihydrobenzo[b][1,4]dioxin-6-yl)-1-hydroxypropan-2-yl)-1-(6-fluoronaphthalen-2-yl)pyrrolidine-3-carboxamide] is 30 to 100 nM; for `O=C(N[C@H](CN1CCCC1)[C@H](O)c1cc(F)c2c(c1)OCCO2)[C@@H]1CCN(c2ccccn2)C1` [Compound 48, (R)-N-((1R,2R)-1-(8-fluoro-2,3-dihydrobenzo[b][1,4]dioxin-6-yl)-1-hydroxy-3-(pyrrolidin-1-yl)propan-2-yl)-1-(pyridin-2-yl)pyrrolidine-3-carboxamide] it is 1 to 30 nM. On to `O=C(N[C@H](CN1CCCC1)[C@H](O)c1cc(F)c2c(c1)OCCO2)[C@H]1CCN(c2ccccn2)C1` [Compound 48A, (S)-N-((1R,2R)-1-(8-fluoro-2,3-dihydrobenzo[b][1,4]dioxin-6-yl)-1-hydroxy-3-(pyrrolidin-1-yl)propan-2-yl)-1-(pyridin-2-yl)pyrrolidine-3-carboxamide], for which the “Data Range (% inhibition)” value is recorded as “F (1-49% (or less than 50%))”. For the compound `CN1CCC(Oc2ccc([C@@H](O)[C@@H](CN3CCCC3)NC(=O)[C@@H]3CCN(c4ccc(Cl)cc4)C3)cc2Cl)CC1` [Compound 49, (R)-N-((1R,2R)-1-(3-chloro-4-((1-methylpiperidin-4-yl)oxy)phenyl)-1-hydroxy-3-(pyrrolidin-1-yl)propan-2-yl)-1-(4-chlorophenyl)pyrrolidine-3-carboxamide], the IC50 was 30 to 100 nM. Regarding `CN1CCC(Oc2ccc([C@@H](O)[C@@H](CN3CCCC3)NC(=O)[C@H]3CCN(c4ccc(Cl)cc4)C3)cc2Cl)CC1` [Compound 49A, (S)-N-((1R,2R)-1-(3-chloro-4-((1-methylpiperidin-4-yl)oxy)phenyl)-1-hydroxy-3-(pyrrolidin-1-yl)propan-2-yl)-1-(4-chlorophenyl)pyrrolidine-3-carboxamide], the “Data Range (% inhibition)” value was “F (1-49% (or less than 50%))”.

A word on the IC50: it is the concentration needed to halve the response being measured.
